This test concerns LPS-stimulated J774 macrophages (TSPO). Nature of the test: In vitro J774 murine macrophage uptake studies (fluorescence microscopy, with or without blocking). The class given is cell-based. The conditions noted are these: 40 nM probe, 1 hour of incubation. How it is done:
FIG. 4 is a series of photomicrographs (A-I) of J774 macrophages that were cultured in 8 well chamber slides to 80% confluence. LPS was then added to each well for 24 hours to stimulate the cells. […] The cells were returned to the incubator for either 1 hour or 24 hours. The solutions were then removed, the nuclei were labeled with Hoechst 33342 and the cells were briefly washed before mounting and viewing under a fluorescence microscope.
In vitro J774 murine macrophage uptake studies. The immortalized J774 murine macrophage-like cell line was cultured in RPMI1640+20% FBS+1% penicillin+ streptomycin media in 8-well chamber slides (Fisher Scientific) to approximately 80% confluence. The cells were then stimulated with 1 ng/mL of LPS (Sigma, E. coli 055:B5) for 24 hours prior to addition of the probes of the present invention to 40 nM final concentration. […] The cells were exposed to the fluorescent probes and blocking compounds for either 1 hour or 24 hours prior to exposing to 1 ng/mL of Hoechst 33342 dye (Invitrogen), followed by washing twice briefly with PBS, pH 7.5. The chambers were then removed and the slide mounted with Dako Cytomation aqueous mounting media and a glass coverslip. The cells were visualized using a Nikon 80i upright epifluorescence microscope equipped with a Nikon DS-QilMc darkfield CCD camera and processed using Nikon Image Software on an adjacent workstation. The dyes were excited using either a Nikon Intensilight C-HGFI lamp (IRDye680 and Hoechst) or a Sutter Instruments Co. (Novato, Calif.) LB/LB-30 xenon lamp (IRDye800).
J774 Cell Uptake Studies. J774 macrophages were cultured in 8 well chamber slides to 80% confluence. LPS was then added to each well for 24 hours to stimulate the cells. […] The cells were returned to the incubator for either 1 hour or 24 hours. The solutions were then removed, the nuclei were labeled with Hoechst 33342 and the cells were briefly washed before mounting and viewing under a fluorescence microscope. […] The tracer localization for both analogs is perinuclear and granular in appearance and is consistent with the gross distribution pattern of TSPO expression in other mononuclear cell-derived lines.

In the case of `CCN(CC)C(=O)Cc1c(-c2ccc(OCCNC(=O)CCCCC[N+]3=C(/C=C/C4=C(Oc5ccc(S(=O)(=O)O)cc5)C(=C/C=C5/N(CCCCS(=O)(=O)O)c6ccc(S(=O)(=O)O)cc6C5(C)C)/CCC4)C(C)(C)c4cc(S(=O)(=O)[O-])ccc43)cc2)nn2c(C)cc(C)nc12` [DPA-713-IRDye800CW, 1-(6-(2-(4-(3-(2-(diethylamino)-2-oxoethyl)-5,7-dimethylpyrazolo[1,5-a]pyrimidin-2-yl)phenoxy)ethylamino)-6-oxohexyl)-2-((E)-2-((E)-3-((E)-2-(3,3-dimethyl-5-sulfo-1-(4-sulfobutyl)indolin-2-ylidene)ethylidene)-2-(4-sulfophenoxyl)cyclohex-1-enyl)vinyl)-3,3-dimethyl-3H-indolium-5-sulfonate], the “Observable fluorescence signal (uptake)” value is recorded as “almost no observable signal”.

For the origin of these results see US9498546B2, “Synthesis and application of novel imaging agents conjugated to DPA 713 analogs for imaging inflammation” (THE JOHNS HOPKINS UNIVERSITY, priority 2012, dated 2016).
